The source of these data is ChEMBL document CHEMBL1129610, “3- and 4-pyridylalkyl adamantanecarboxylates: inhibitors of human cytochrome P450(17 alpha) (17 alpha-hydroxylase/C17,20-lyase). Potential nonsteroidal agents for the treatment of prostatic cancer” (J Med Chem, 1996).

The target of data set [1] is T1, Steroid 17-alpha-hydroxylase/17,20 lyase (Homo sapiens, UniProt P05093).
T1 sequence (P05093 whole entry): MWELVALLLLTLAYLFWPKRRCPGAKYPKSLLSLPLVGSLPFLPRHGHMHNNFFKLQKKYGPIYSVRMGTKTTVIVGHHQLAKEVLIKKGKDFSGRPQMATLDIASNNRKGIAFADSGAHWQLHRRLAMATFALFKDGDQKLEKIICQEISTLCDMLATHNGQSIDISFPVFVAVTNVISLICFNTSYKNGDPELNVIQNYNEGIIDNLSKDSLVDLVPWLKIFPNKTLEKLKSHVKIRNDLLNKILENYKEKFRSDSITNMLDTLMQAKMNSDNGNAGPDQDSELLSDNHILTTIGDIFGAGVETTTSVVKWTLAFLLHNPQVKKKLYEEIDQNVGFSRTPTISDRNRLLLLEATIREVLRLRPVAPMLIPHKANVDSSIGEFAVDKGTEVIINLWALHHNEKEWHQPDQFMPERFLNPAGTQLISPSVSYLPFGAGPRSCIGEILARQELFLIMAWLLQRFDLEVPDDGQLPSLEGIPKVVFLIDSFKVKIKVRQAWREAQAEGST

Data set [2] has as its target T1, Steroid 17-alpha-hydroxylase/17,20 lyase. The class given is microsomes, Testis, Microsomes.
Data set [3] can be described thus: in vitro. Particulars: rat, in vivo.
For data set [4], the species on record is Mus musculus. The class given is functional.
The species entered for data set [5] is Mus musculus. Format: functional. This is another data set of the same source.
For data set [6], the species on record is Rattus norvegicus. Format: functional.
Data set [7] in a line: in vitro. Particulars: rat, in vivo. The source holds these as a separate data set.
The species named for another data set is Homo sapiens. Format: functional, Blood.
The species named for data set [8] is Mus musculus. The class given is functional, Blood.
Data set [9] is filed under the species Rattus norvegicus. Format: functional, Blood.
Data set [10] is described as follows: in vitro. Particulars: rat, in vivo. This is another data set of the same source.

As usually defined, the IC50 is the concentration needed to halve the response being measured. A high value points to weaker potency in that assay. For the molecule `C[C@H](NC(=O)C12CC3CC(CC(C3)C1)C2)c1ccncc1`, the IC50 amounted to 820 nM in data set [1] and 210 nM in data set [2].
The half-life is how long it takes for the measured level to halve. A lower half-life goes with fast loss. For `C[C@H](OC(=O)C12CC3CC(CC(C3)C1)C2)c1ccncc1`, the half-life in the data set “in vitro [3]” was 30 s.
The molecule `C[C@@H](OC(=O)C12CC3CC(CC(C3)C1)C2)c1ccncc1` registered a half-life in “in vitro [3]” of 30 s.
As to `CC(C)(OC(=O)C12CC3CC(CC(C3)C1)C2)c1ccncc1`, the entries for the “Substrate metabolized at 1hr” value in the data set filed under Mus musculus [4], in the data set listed under Mus musculus [5] and in the data set listed under Rattus norvegicus [6] were 2%, 0% and 0%, respectively. Besides, in “in vitro [7]”, the half-life at 1 h is over 1 h.
For the molecule `O=C(OCc1ccncc1)C12CC3CC(CC(C3)C1)C2`, the “Substrate metabolized at 1hr” value in the data set listed under Homo sapiens is reported as 45%; in the data set listed under Mus musculus [8] it was 100%; in the data set listed under Rattus norvegicus [9], 100%. This molecule also gave a half-life at 1 min in the data set “in vitro [10]” of under 60 s.
Take `C[C@@H](NC(=O)C12CC3CC(CC(C3)C1)C2)c1ccncc1`: the values for the IC50 in data set [1] and in data set [2] were 1900 nM and 430 nM, respectively.
